From PMC12656565, “In Vitro and Ultrastructural Evaluation of the Cytotoxic and Antileishmanial Activities of Thiosemicarbazone Compounds Against Promastigotes and Axenic Amastigotes of Leishmania infantum” (Tropical Medicine and Infectious Disease, 2025)

Columns and labels:
[1] = test system: J774 macrophages and Vero cells; set-up: method as in ref [21] Aliança et al.; conditions: ref [21] Aliança et al.; cited from earlier work
[2] = test system: L. infantum axenic amastigotes; experiment: Ultrastructural analysis (SEM/TEM) of axenic amastigote forms; type: cell-based, Leishmania infantum; conditions: 1× and 2× IC50 (Amphotericin B 1× IC50), 72 h
Method: Differentiation of L. infantum promastigote forms into axenic amastigote forms was carried out according to the protocol by Oliveira et al., with adaptations. Stationary-phase promastigotes (72 h) were cultured in modified Schneider’s Drosophila medium supplemented with 10% fetal bovine serum (FBS) at 26 °C. Cells were collected by centrifugation (3000× g for 10 min at 4 °C), washed three times with PBS (150 mM NaCl, 20 mM phosphate buffer, pH 7.2), and adjusted to 1 × 10^6 cells/mL. Differentiation was induced in acidified Schneider’s medium (pH 5.5), supplemented with 2.5% FBS, incubated at 32 °C for seven days.
Axenic amastigotes were obtained from stationary-phase promastigotes of L. infantum following standard differentiation protocols. The cultures were maintained under controlled conditions and monitored daily by optical microscopy. Morphological observations confirmed the transition from elongated promastigotes to rounded amastigote-like forms with internalized or absent flagella. […] Cultures were regularly examined for microbial contamination, and no evidence of bacterial or fungal contamination was detected during the differentiation or experimental periods. Axenic amastigotes were exposed to compounds LT-73 and LT-75 at concentrations corresponding to the IC50 and 2× IC50, previously determined for promastigotes based on leishmanicidal activity, for analysis by scanning (SEM) and transmission electron microscopy (TEM). […]
After this period, cells were washed with PBS (phosphate-buffered saline) and fixed in a solution containing 2.5% glutaraldehyde and 4% formaldehyde in 0.1 M phosphate buffer (pH 7.4) for 24 h at 4 °C. […] Sections were contrasted with 2% uranyl acetate for 30 min and 2.5% lead citrate for 10 min, then analyzed using a Tecnai G2 Spirit TEM (FEI). […]
(§1) All images were acquired under standardized laboratory protocols. A minimum of 50 parasites per condition were analyzed by two blinded investigators and no visible precipitation or crystallization occurred during fixation.

peritoneal macrophages = test system: peritoneal macrophages; set-up: method as in ref [23] Queiroz et al.; conditions: ref [23] Queiroz et al.; cited from earlier work
[3] = test system: L. infantum promastigote forms; experiment: Ultrastructural analysis (SEM/TEM) of promastigote forms; type: cell-based, Leishmania infantum; conditions: promastigotes, 1× and 2× IC50 (Amphotericin B 1× IC50), 72 h
Method: Ultrastructural analysis of promastigote and axenic amastigote forms of L. infantum was performed as described by Silva et al., with adaptations. Promastigote and amastigote forms were cultured in modified Schneider’s medium supplemented with 10% fetal bovine serum (FBS), in a BOD incubator at 26 °C and 32 °C, respectively, until reaching the stationary growth phase (72 h). After adjusting cell concentration to 1 × 10^7 cells/mL, samples were incubated with compounds LT-73, LT-75, and amphotericin B at concentrations corresponding to the IC50 and 2× IC50 previously determined, as well as a DMSO control (1% diluted), for 72 h. During incubation, daily microscopic monitoring of cell morphology was performed.
After this period, cells were washed with PBS (phosphate-buffered saline) and fixed in a solution containing 2.5% glutaraldehyde and 4% formaldehyde in 0.1 M phosphate buffer (pH 7.4) for 24 h at 4 °C. For transmission electron microscopy (TEM), cells were post-fixed in 1% osmium tetroxide (OsO4) for 2 h in 0.1 M phosphate buffer (pH 7.2), dehydrated in increasing acetone series (30%, 50%, 70%, 90%, and 3× 100%), embedded in EPON resin, and subjected to ultrathin sectioning using an ultramicrotome. Sections were contrasted with 2% uranyl acetate for 30 min and 2.5% lead citrate for 10 min, then analyzed using a Tecnai G2 Spirit TEM (FEI).
For scanning electron microscopy (SEM), after primary fixation, cells were adhered to coverslips pre-treated with poly-L-lysine for 30 min. Then, cells were washed three times with 0.1 M phosphate buffer (pH 7.2), post-fixed in 1% OsO4 for 2 h, dehydrated in increasing ethanol series (30%, 50%, 70%, 90%, and 3× 100%), subjected to critical point drying using an HCP-2 device (Hitachi (Tokyo, Japan)), and gold-coated (20 nm) using a JFC-1100 device ((JEOL Ltd., Tokyo, Japan)). […]
as §1

J774.A1 macrophages = experiment: Cytokine dosage (CBA) in supernatants of uninfected macrophages; type: cell-based, Mouse; conditions: 1× and 2× CC50, 72 h
Method: J774.A1 macrophage lineage cells were cultured in 96-well polystyrene plates containing DMEM medium supplemented with 10% FBS. Cells were incubated with the following concentrations: 1× CC50 and 2× CC50 of compounds LT-73 and LT-75 and amphotericin B, as well as 1% DMSO diluent solution as control, for 72 h. The cells used in these assays were not infected with Leishmania infantum, allowing the evaluation of cytokine modulation and cytotoxicity in uninfected macrophages. After cultivation, 100 µL of culture supernatants were collected and immediately stored at −20 °C for later use in CBA assays (Cytometric Bead Array-BD Biosciences, BD Biosciences, San Jose, CA, USA). This assay utilized a mixture of […] polystyrene beads with different fluorescence intensities, coated with specific antibodies for quantification of cytokines IFN-γ, TNF, IL-10, IL-6, IL-4, IL-2, and IL-17a present in sample supernatants. Cytokine levels were quantified using the BD Cytometric Bead Array (CBA) Mouse Th1/Th2/Th17 kit (Cat. No. 560485, BD Biosciences, San Jose, CA, USA) and analyzed on a BD FACSCalibur™ Flow Cytometer with BD CellQuest PRO Software (BD Biosciences; version 5.1 by the facility). Results are expressed in pg/mL based on standard curves provided by the manufacturer.

| Compound | cytotoxicity [1] | TEM ultrastructural alterations [2] | cytotoxicity (peritoneal macrophages) | TEM ultrastructural alterations [3] | IFN-γ production (J774.A1 macrophages) | IL-6 secretion (J774.A1 macrophages) |
| --- | --- | --- | --- | --- | --- | --- |
| C[C@@H]1[C@H](O)[C@@H](C)/C=C/C=C/C=C/C=C/C=C/C=C/C=C/[C@H](O[C@@H]2O[C@H](C)[C@@H](O)[C@H](N)[C@@H]2O)C[C@@H]2O[C@](O)(C[C@@H](O)C[C@@H](O)[C@H](O)CC[C@@H](O)C[C@@H](O)CC(=O)O[C@H]1C)C[C@H](O)[C@H]2C(=O)O [Amphotericin B, reference compound] | 74.7 µM | plasma membrane rupture, alterations in the kinetoplast, and mitochondrial swelling | 74.86 µM | membrane rupture, chromatin condensation, and mitochondrial swelling | – | – |
| S=C(N/N=C/c1c[nH]c2ncccc12)Nc1ccccc1 [LT-73] | – | significant alterations in the plasma membrane and flagellar pocket, chromatin condensation, mitochondrial swelling, and an increased number of intracellular vacuoles | – | disorganization of the plasma membrane, mitochondrial swelling, chromatin condensation, and the presence of numerous vacuoles | no cytokine production was observed | IL-6 production was observed only at the CC50 concentration |
| N#Cc1ccc2[nH]cc(/C=N/NC(=S)Nc3ccc(Cl)cc3)c2c1 [LT-75] | – | severe damage to the plasma membrane and cytoskeleton | – | extensive damage to the plasma membrane and cytoskeleton | induced the production of the cytokine IFN-γ | discrete elevation detected at 1× LT-75 |
